Measured values taken from patent US9125930B2, “EGFR aptamer inhibitor for use in therapy and diagnosis” (CONSIGLIO NAZIONALE DELLE RICERCHE, priority 2010, dated 2015).

Assays:
[1] = tested on: A549 cells; assay: Cell viability assay, A549 cells; assay type: cell-based, human; conditions: dose-dependent experiments, 0.1-10 μM
Experimental: Cell viability was assessed with CellTiter 96® AQueous One Solution Cell Proliferation Assay (Promega, Madison, Wis.) according to according to the supplier's instructions. […] The optical density (OD) was measured using a Multilabel Counter (Bio-Rad) at a wavelength of 490 nm and cell viability was calculated by the following formula: Cell viability (%)=(OD treated cells/OD control cells)×100%. FACS Analysis

[2] = biological target: EGFR (Homo sapiens, UniProt P00533); assay: Immunoblot of EGF-dependent EGFR phosphorylation in A549 cells; assay type: cell-based; parameters: endogenous in cells; host or cells: A549; conditions: 200 nM aptamer, following 5 min of EGFR stimulation
Experimental: […] The aptamers were subjected to a short denaturation-renaturation step (85° C. for 5 min, snap-cooled on ice for 2 min, and allowed to warm up to 37° C.) before each treatment. To prepare cell extracts, cells were washed twice in ice-cold PBS, and lysed in buffer A (50 mM Tris-HCl pH 8.0 buffer containing 150 mM NaCl, 1% Nonidet P-40, 2 mg/ml aprotinin, 1 mg/ml pepstatin, 2 mg/ml leupeptin, 1 mM Na3VO4). Protein concentration was determined by the Bradford assay using bovine serum albumin as the standard. The cell lysates were subjected to SDS-PAGE. Gels were electroblotted into polyvinylidene difluoride membranes (Millipore Co., Bedford, Mass.), and filters were probed with the indicated primary antibodies: anti-EGFR and anti-phospho-EGFR (Tyr1062), anti-phospho-44/42 MAP kinase (E10) (also indicated as p-Erk), anti-phospho-Akt, anti-Akt and anti-phospho-STAT3 (Tyr705), anti-ErbB2 (all from Cell Signaling, Beverly, Mass., United States); anti-Erk1, anti-EGFR, anti-ErbB3, anti-ErbB4 (C-16) (Santa Cruz Biotechnology, California, United States); anti-α-αtubulin (DM 1A) (Sigma, St. Louis, Mo.).
Proteins were visualized with peroxidase-conjugated secondary antibodies using the enhanced chemiluminescence system (GE Healthcare Bio-Sciences, Uppsala, Sweden). […]

[3] = tested on: A549 cells; assay: Apoptosis assay by PI staining and FACS; assay type: cell-based, human; parameters: dose or concentration left out as unconfirmed; conditions: A549, 24 hs or 48 hs
Experimental: For apoptosis assay, DNA content analysis was performed by staining with propidium iodide (PI) and analyzing cells by flow cytometry (FACS).
[…] Cells were incubated with 2 μg/ml propidium iodide (PI, Sigma, St. Louis, Mo.) for 30 min at 4° C. and recovered. The relative proportion of cells with DNA content indicative of apoptosis (ipoploid) was determined by FACS.

[4] = tested on: A431 tumors; assay: Tumor growth in A431 mouse xenograft; assay type: in vivo; conditions: 200 pmoles intratumoral, three times a week for two weeks
Experimental: Athymic nude mice (nu/nu) were maintained in a sterile environment according to guidelines for Animal Care. Mice were inoculated with either 3×10^6 (in 100 μl) in vitro propagated A431 cells subcutaneously injected into each flank. Approximately 24 non-necrotic tumors for each tumor type, of about 1 cm in diameter, were randomly divided into three groups of eight mice per treatment group as follows: group 1, no treatment; group 2, treated with scrambled RNA as a negative control (200 pmols/injection); group 3, treated with CL4 42-81 (200 pmols/injection). Compounds were injected intra-tumorally in 100-1 μl volumes three times a week for two weeks. Day 0 marks the first day of injection. The aptamers may also be administered systemically, in particular when optimized by addition of polyethylene glycol (PEG).
The volume injections are small enough to preclude the compounds being forced inside the cells due to a nonspecific high-pressure injection. Tumors were measured every 3 days with calipers in three dimensions. The following formula was used to calculate tumor volume: VT=(W×L×H)×0.5236 (W, the shortest dimension; L, the longest dimension; H, the intermediate dimension). The growth curves are plotted as the means tumor volume±s.e.m. Statistical analysis of tumor size data was conducted using a one-way ANOVA. A P-value of 0.05 or less was considered to indicate a significant difference. […]

[5] = tested on: A549 cells; assay: Binding of [32P]-labeled aptamer on A549 cells; parameters: species or system human; conditions: binding to A549 target cells
Experimental: Binding experiments were performed with 5′-[^32P]-labeled RNA. For labeling 2′-F-Py RNAs were 5′-end dephosphorylated using bacterial alcaline phosphatase (Invitrogen, Carlsbad, Calif.) before [^32P]-5′-end-labeled using T4 kinase (Invitrogen) and γ-[^32P]-ATP (6×10^3 Ci/mmol, GE Healthcare Bio-Sciences, Uppsala, Sweden) according to the supplier's instructions.
For binding experiments on cells, 3.5×10^4 cells were plated in 24-well plates in triplicate and were incubated with CL4 42-81 aptamer the scrambled sequence used as a negative control at 100 nM concentration in 200 μl of DMEM serum free for 20 min at RT in the presence of 100 μg/ml polyinosine as a nonspecific competitor (Sigma, St. Louis, Mo.). After five washings with 500 μl DMEM, bound sequences were recovered in 300 μl of SDS 1%, and the amount of radioactivity recovered was counted.

## COc1cc2ncnc(Nc3ccc(F)c(Cl)c3)c2cc1OCCCN1CCOCC1 [gefitinib, reference compound]
[1]
  sensitivity of A549 cell viability: resistant

## scrambled aptamer: scrambled aptamer used as negative control: 5′ UUCGUACCGGGUAGGUUGGCUUGCACAUAGAACGUGUCA 3′ (SEQ ID NO: 2) (listed as RNA, chemistry not given here) [reference compound]
[2]
  inhibition of EGF-dependent phosphorylation of EGFR: No effect
[3]
  effect on percentage of apoptotic cells: No effect
[4]
  tumor volume: not observed

B1: CL4: entire 92 nt aptamer generated by differential cell-SELEX on A549 cells (SEQ ID NO: 4), parent of CL4 42-81 (nucleic acid)
chain: GGGAGACAAGAAUAAACGCUCAACGACACGUUGCCAGCCGGAGCCUUAGUAACGUGCUUUGAUGUCGAUUCGACAGGAGGCUCACAACAGGC
modifications: listed as RNA, chemistry not given here
[5]
  Kd: 46 nM
